# Results taken from patent US20240315991A1, “USES OF HNF4 ALPHA AGONISTS” (Sanford Burnham Prebys Medical Discovery Institute, priority 2023, published 2024).
# What was measured:
# [1] = tested on: DNA encoding the mitochondrial genes ND1; assay: Mitochondrial DNA analysis of liver, ND1; type: in vivo; conditions: mouse liver, HFD+NCT vs HFD, FIG. 3K
# Description: (§1) NCT oral administration. Four-week-old male C57BL/6J (JAX cat #000664) mice were purchased from Jackson laboratory and were maintained in a 12 h light/dark cycle throughout the experiment. Prior to the experiments, mice were acclimated for 2 weeks. Six-week-old mice with similar body weights were randomized to a normal diet (NC), a high fat diet (HFD) (Research Diets, cat #D12492 60 kcal % fat) or HFD containing 4000 ppm NCT (HFD+NCT) (Research Diets, 60 kcal % fat+4000 ppm NCT), which was calculated to provide approximately 400 mg/kg/d NCT. HFD chow containing NCT was made with gray dye to distinguish it from regular HFD chow that had green dye. Mice for each treatment group were placed in separate cages. Equal amounts of fresh chow were provided every week to all mice. Body weight gain and food intake were measured every week for 10 weeks. After 10 weeks of chow treatment, mice were sacrificed for analysis. All animal experiments were approved by the Institutional Animal Care and Use Committee (IACUC) of the Sanford Burnham Prebys Medical Discovery Institute in accordance with national regulations. Sample size was chosen based on the prior study of NCT delivered by IP injection.
# Quantification of mtDNA was performed. […]
# [2] = tested on: ILIβ mRNA; assay: RT-PCR of mouse liver, ILIβ; type: in vivo; conditions: HFD+NCT vs HFD, FIG. 5C
# Description: as §1, with “All animal experiments were approved by the Institutional Animal Care and Use Committee (IACUC) of the Sanford Burnham Prebys Medical Discovery Institute in accordance with national regulations. Sample size was chosen based on the prior study of NCT delivered by IP injection.” left out
# (§2) RT-PCR. […] Quantitative real time PCR (RT-PCR) analysis was performed using SYBR® Select Master Mix (Applied Biosystems) and an ABI 7900HT thermal cycler (Applied Biosystems, Thermo Fisher Scientific). Ct values were normalized to 18s rRNA and are expressed as fold change over samples from mice fed NC or cultured human hepatocytes without NCT.
# [3] = tested on: blood alanine transaminase (ALT); assay: Liver profile analysis, blood ALT; type: in vivo, mouse; conditions: mice fed on HFD, HFD+NCT vs HFD, FIG. 5I
# Description: as §1, with “All animal experiments were approved by the Institutional Animal Care and Use Committee (IACUC) of the Sanford Burnham Prebys Medical Discovery Institute in accordance with national regulations. Sample size was chosen based on the prior study of NCT delivered by IP injection.” left out
# Liver profile analysis. […] The levels of multiple analytes, including alkaline phosphatase (ALP), alanine aminotransferase (ALT), gamma glutamyl transferase (GGT), bile acids (BA), total bilirubin (TBIL), albumin (ALB), blood urea nitrogen (BUN), total cholesterol (CHOL) were quantified using a VetScan VS2 Chemistry Analyzer (Abaxis North America, USA).
# [4] = tested on: T6PNE cells; assay: Nitric oxide assay in T6PNE cells treated with palmitate; type: cell-based; conditions: 0.12 mM palmitate plus 15 μM NCT, 3 days, FIG. 5H
# Description: T6PNE cells were maintained in RPMI (5.5 mM glucose, Corning) supplemented with 10% fetal bovine serum (FBS, Sigma-Aldrich) and 1% penicillin-streptomycin (pen-strep, Gibco) in 5% CO2 at 37° C. Cells were treated with […] palmitate plus 0 or 15 μM NCT for 3 days in 10 cm plates and harvested with 500 μL PBS. For tissue specimens, snap frozen mouse liver was weighed and homogenized with PBS. NO was measured with the QuantiChrom Nitric Oxide Assay kit (D2NO-100, BioAssay Systems). Homogenized samples (150 μL) were processed for deproteination with 8 μL ZnSO4 and 8 μL NaOH. For normalization, an aliquot of samples from T6PNE cells was taken for BCA assay before deproteination. Samples and standard from kit were incubated with reagents for 20 min at 60° C. and measured OD 540 nm.
# 150 mM Palmitate (Sigma-Aldrich) was prepared in 50% ethanol and precomplexed with 15% fatty acid-free BSA (Research Organics, Cleveland, OH, USA) in a 37° C. water shaker. BSA-precomplexed palmitate was used as a 12 mM stock solution for all assays with a final concentration of 0.12 mM palmitate in cell culture medium.
# [5] = tested on: mice maintained on a 60% fat calorie diet; conditions: intraperitoneal injection for 2 weeks; cited from earlier work
# [6] = tested on: VDAC1; assay: VDAC1 immunofluorescence of liver sections; type: in vivo, mouse; conditions: HFD+NCT vs HFD, FIGS. 3A-3C
# Description: as §1, with “All animal experiments were approved by the Institutional Animal Care and Use Committee (IACUC) of the Sanford Burnham Prebys Medical Discovery Institute in accordance with national regulations. Sample size was chosen based on the prior study of NCT delivered by IP injection.” left out
# Immunofluorescence. […] Slides were mounted using fluorescence mounting medium and images were obtained at ×40 magnification using an Olympus IX71 fluorescence microscope. Fluorescence intensity of HNF4α-stained nuclei and VDAC stained mitochondria was calculated using MetaMorph TL software (version 7.6.5.0, Olympus). Fold change was calculated by normalizing to values from mice fed NC.
# [7] = tested on: TNFα mRNA; assay: RT-PCR of mouse liver, TNFα; type: in vivo; conditions: HFD+NCT vs HFD, FIG. 5B
# Description: as §1, with “All animal experiments were approved by the Institutional Animal Care and Use Committee (IACUC) of the Sanford Burnham Prebys Medical Discovery Institute in accordance with national regulations. Sample size was chosen based on the prior study of NCT delivered by IP injection.” left out
# as §2
smiles,measurement,setting,value
"O=C(/C=C/c1ccc(O)c(O)c1)NCCc1ccc(O)cc1 [NCT, N-trans caffeoyltyramine]",level of DNA encoding the mitochondrial genes ND1,[1],increase
same,expression level of ILIβ in mouse liver,[2],non-significant
same,expression level of ILIβ in mouse liver,[2]; listed as Compound A,not affect
same,blood alanine transaminase (ALT) level,[3],decrease
same,level of NO in cultured cells treated with palmitate,[4],decrease
same,body weight loss,[5],no body weight loss
same,fat stored in liver,[5],reduce
same,VDAC1 level in liver,[6],reverse the depression
same,TNFα level in livers of mice on HFD,[7],decreased
same,TNFα level in livers of mice on HFD,[7]; listed as Compound A,decrease
